In PubChem BioAssay (NCI):
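48-hour exposure; five concentrations; linearly interpolated endpoints. TGI denotes the concentration required for complete inhibition of growth.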

Key:
Assay in all cases: inhibition of tumour cell growth, NCI panel, 48 h
786-0 renal = system: 786-0 renal
A549 NSCLC = system: A549 NSCLC
ACHN renal = system: ACHN renal
BT-549 breast = system: BT-549 breast
CAKI-1 renal = system: CAKI-1 renal
CCRF-CEM leukemia = system: CCRF-CEM leukemia
COLO 205 colon = system: COLO 205 colon
DU-145 prostate = system: DU-145 prostate
EKVX NSCLC = system: EKVX NSCLC
HCT-116 colon = system: HCT-116 colon
HCT-15 colon = system: HCT-15 colon
HL-60(TB) leukemia = system: HL-60(TB) leukemia
HOP-62 NSCLC = system: HOP-62 NSCLC
HS 578T breast = system: HS 578T breast
HT29 colon = system: HT29 colon
IGROV1 ovarian = system: IGROV1 ovarian
K-562 leukemia = system: K-562 leukemia
KM12 colon = system: KM12 colon
LOX IMVI melanoma = system: LOX IMVI melanoma
M14 melanoma = system: M14 melanoma
MCF7 breast = system: MCF7 breast
MDA-MB-231 breast = system: MDA-MB-231 breast
MDA-MB-435 = system: MDA-MB-435
MDA-N = system: MDA-N
MOLT-4 leukemia = system: MOLT-4 leukemia
NCI-H226 lung = system: NCI-H226 lung
NCI-H460 lung = system: NCI-H460 lung
NCI-H522 lung = system: NCI-H522 lung
NCI/ADR-RES ovarian = system: NCI/ADR-RES ovarian
OVCAR-3 ovarian = system: OVCAR-3 ovarian
OVCAR-4 ovarian = system: OVCAR-4 ovarian
OVCAR-5 ovarian = system: OVCAR-5 ovarian
OVCAR-8 ovarian = system: OVCAR-8 ovarian
PC-3 prostate = system: PC-3 prostate
RPMI-8226 leukemia = system: RPMI-8226 leukemia
RXF 393 renal = system: RXF 393 renal
SF-268 CNS = system: SF-268 CNS
SF-295 CNS = system: SF-295 CNS
SF-539 CNS = system: SF-539 CNS
SK-MEL-2 melanoma = system: SK-MEL-2 melanoma
SK-MEL-28 melanoma = system: SK-MEL-28 melanoma
SK-MEL-5 melanoma = system: SK-MEL-5 melanoma
SK-OV-3 ovarian = system: SK-OV-3 ovarian
SN12C renal = system: SN12C renal
SNB-19 CNS = system: SNB-19 CNS
SNB-75 CNS = system: SNB-75 CNS
SR leukemia = system: SR leukemia
SW-620 colon = system: SW-620 colon
T-47D breast = system: T-47D breast
TK-10 renal = system: TK-10 renal
U251 CNS = system: U251 CNS
UACC-257 melanoma = system: UACC-257 melanoma
UACC-62 melanoma = system: UACC-62 melanoma
UO-31 renal = system: UO-31 renal
HCC-2998 colon = system: HCC-2998 colon
MALME-3M melanoma = system: MALME-3M melanoma
NCI-H23 lung = system: NCI-H23 lung

Measured: TGI

Cc1ccc(S(=O)(=O)N(CCN2C(=O)c3ccccc3C2=O)c2cc3c4c(c2)Oc2cc(N(CCN5C(=O)c6ccccc6C5=O)S(=O)(=O)c5ccc(C)cc5)cc5c2C4(C)c2c(cc(N(CCN4C(=O)c6ccccc6C4=O)S(=O)(=O)c4ccc(C)cc4)cc2O5)O3)cc1
> 100 µM: 786-0 renal | A549 NSCLC | ACHN renal | BT-549 breast | CAKI-1 renal | CCRF-CEM leukemia | COLO 205 colon | DU-145 prostate | EKVX NSCLC | HCT-116 colon | HCT-15 colon | HL-60(TB) leukemia | HOP-62 NSCLC | HS 578T breast | HT29 colon | IGROV1 ovarian | K-562 leukemia | KM12 colon | LOX IMVI melanoma | M14 melanoma | MCF7 breast | MDA-MB-435 | MDA-N | MOLT-4 leukemia | NCI-H226 lung | NCI-H460 lung | NCI-H522 lung | NCI/ADR-RES ovarian | OVCAR-3 ovarian | OVCAR-4 ovarian | OVCAR-5 ovarian | OVCAR-8 ovarian | PC-3 prostate | RPMI-8226 leukemia | RXF 393 renal | SF-268 CNS | SF-295 CNS | SF-539 CNS | SK-MEL-2 melanoma | SK-MEL-28 melanoma | SK-MEL-5 melanoma | SK-OV-3 ovarian | SN12C renal | SNB-19 CNS | SNB-75 CNS | SR leukemia | SW-620 colon | T-47D breast | TK-10 renal | U251 CNS | UACC-257 melanoma | UACC-62 melanoma | UO-31 renal
45.8 µM: MDA-MB-231 breast

CC(=O)N1C(Nc2cnc3ccccc3c2)CCN1c1ccccc1 (stereo not drawn)
> 10 µM: 786-0 renal | A549 NSCLC | ACHN renal | BT-549 breast | CAKI-1 renal | CCRF-CEM leukemia | COLO 205 colon | DU-145 prostate | EKVX NSCLC | HCC-2998 colon | HCT-116 colon | HCT-15 colon | HL-60(TB) leukemia | HOP-62 NSCLC | HS 578T breast | HT29 colon | IGROV1 ovarian | K-562 leukemia | LOX IMVI melanoma | M14 melanoma | MALME-3M melanoma | MCF7 breast | MDA-MB-231 breast | MDA-MB-435 | MDA-N | MOLT-4 leukemia | NCI-H226 lung | NCI-H23 lung | NCI-H460 lung | NCI-H522 lung | NCI/ADR-RES ovarian | OVCAR-3 ovarian | OVCAR-4 ovarian | OVCAR-5 ovarian | OVCAR-8 ovarian | PC-3 prostate | RPMI-8226 leukemia | RXF 393 renal | SF-268 CNS | SF-295 CNS | SF-539 CNS | SK-MEL-2 melanoma | SK-MEL-28 melanoma | SK-MEL-5 melanoma | SK-OV-3 ovarian | SN12C renal | SNB-19 CNS | SNB-75 CNS | SR leukemia | SW-620 colon | T-47D breast | TK-10 renal | UACC-257 melanoma | UO-31 renal
